Test results reported in PubChem BioAssay (NCI).
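All cell lines were grown in 96-well plates and treated with compound for 48 hours. At the GI50, growth is halved. TGI marks complete inhibition of growth.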

What was measured:
Test in all cases: NCI-60 cell line screen, 48 h
HCT-15 colon = system: HCT-15 colon
SN12C renal = system: SN12C renal
786-0 renal = system: 786-0 renal
CCRF-CEM leukemia = system: CCRF-CEM leukemia
RPMI-8226 leukemia = system: RPMI-8226 leukemia
HCT-116 colon = system: HCT-116 colon
SK-MEL-5 melanoma = system: SK-MEL-5 melanoma
CAKI-1 renal = system: CAKI-1 renal
KM12 colon = system: KM12 colon
NCI-H226 lung = system: NCI-H226 lung
UO-31 renal = system: UO-31 renal
M14 melanoma = system: M14 melanoma
SK-OV-3 ovarian = system: SK-OV-3 ovarian
MDA-MB-231 breast = system: MDA-MB-231 breast
A549 NSCLC = system: A549 NSCLC
SR leukemia = system: SR leukemia
PC-3 prostate = system: PC-3 prostate
LOX IMVI melanoma = system: LOX IMVI melanoma
T-47D breast = system: T-47D breast
TK-10 renal = system: TK-10 renal
SK-MEL-28 melanoma = system: SK-MEL-28 melanoma
OVCAR-8 ovarian = system: OVCAR-8 ovarian
HT29 colon = system: HT29 colon
MCF7 breast = system: MCF7 breast
MOLT-4 leukemia = system: MOLT-4 leukemia
IGROV1 ovarian = system: IGROV1 ovarian
NCI/ADR-RES ovarian = system: NCI/ADR-RES ovarian
U251 CNS = system: U251 CNS
HOP-92 NSCLC = system: HOP-92 NSCLC
EKVX NSCLC = system: EKVX NSCLC
NCI-H460 lung = system: NCI-H460 lung
HL-60(TB) leukemia = system: HL-60(TB) leukemia
COLO 205 colon = system: COLO 205 colon
OVCAR-4 ovarian = system: OVCAR-4 ovarian
OVCAR-5 ovarian = system: OVCAR-5 ovarian
HOP-62 NSCLC = system: HOP-62 NSCLC
SF-539 CNS = system: SF-539 CNS
NCI-H23 lung = system: NCI-H23 lung
NCI-H522 lung = system: NCI-H522 lung
RXF 393 renal = system: RXF 393 renal
SF-268 CNS = system: SF-268 CNS
A498 renal = system: A498 renal
UACC-62 melanoma = system: UACC-62 melanoma
OVCAR-3 ovarian = system: OVCAR-3 ovarian
MALME-3M melanoma = system: MALME-3M melanoma
SNB-19 CNS = system: SNB-19 CNS
K-562 leukemia = system: K-562 leukemia
SF-295 CNS = system: SF-295 CNS
SW-620 colon = system: SW-620 colon
SNB-75 CNS = system: SNB-75 CNS
SK-MEL-2 melanoma = system: SK-MEL-2 melanoma
HCC-2998 colon = system: HCC-2998 colon
BT-549 breast = system: BT-549 breast
DU-145 prostate = system: DU-145 prostate
MDA-MB-435 = system: MDA-MB-435
ACHN renal = system: ACHN renal
HS 578T breast = system: HS 578T breast
UACC-257 melanoma = system: UACC-257 melanoma

Q: For COC(=O)C1=CN(CC2=CC(=O)C(C)=CC2=O)C=C(C(=O)OC)C1c1cc(OC)ccc1OC, which GI50 (HCT-15 colon) is on record?
A: 13.5 µM

Q: And the TGI (HCT-15 colon)?
A: 30 µM

Q: What about the GI50 (SN12C renal) of the same molecule?
A: 16 µM

Q: What about the TGI (SN12C renal) of the same molecule?
A: 33.2 µM

Q: And the GI50 (786-0 renal)?
A: 2.28 µM

Q: And the TGI (786-0 renal)?
A: 5.54 µM

Q: And the GI50 (CCRF-CEM leukemia)?
A: 1.73 µM

Q: And the TGI (CCRF-CEM leukemia)?
A: 3.61 µM

Q: And the GI50 (RPMI-8226 leukemia)?
A: 1.9 µM

Q: And the TGI (RPMI-8226 leukemia)?
A: 4.83 µM

Q: What about the GI50 (HCT-116 colon) of the same molecule?
A: 1.87 µM

Q: And the TGI (HCT-116 colon)?
A: 3.28 µM

Q: And the GI50 (SK-MEL-5 melanoma)?
A: 14.8 µM

Q: What about the TGI (SK-MEL-5 melanoma) of the same molecule?
A: 29.1 µM

Q: And the GI50 (CAKI-1 renal)?
A: 6.38 µM

Q: What about the TGI (CAKI-1 renal) of the same molecule?
A: 13.5 µM

Q: And the GI50 (KM12 colon)?
A: 16.1 µM

Q: What about the TGI (KM12 colon) of the same molecule?
A: 31.7 µM

Q: What about the GI50 (NCI-H226 lung) of the same molecule?
A: 20.1 µM

Q: What about the TGI (NCI-H226 lung) of the same molecule?
A: 54.3 µM

Q: And the GI50 (UO-31 renal)?
A: 4.94 µM

Q: What about the TGI (UO-31 renal) of the same molecule?
A: 9.44 µM

Q: What about the GI50 (M14 melanoma) of the same molecule?
A: 12.1 µM

Q: What about the TGI (M14 melanoma) of the same molecule?
A: 26.5 µM

Q: What about the GI50 (SK-OV-3 ovarian) of the same molecule?
A: 23 µM

Q: What about the TGI (SK-OV-3 ovarian) of the same molecule?
A: > 54.8 µM

Q: What about the GI50 (MDA-MB-231 breast) of the same molecule?
A: 15.7 µM

Q: And the TGI (MDA-MB-231 breast)?
A: 30.2 µM

Q: And the GI50 (A549 NSCLC)?
A: 13.5 µM

Q: What about the TGI (A549 NSCLC) of the same molecule?
A: 31.2 µM

Q: And the GI50 (SR leukemia)?
A: 2.59 µM

Q: What about the TGI (SR leukemia) of the same molecule?
A: > 22.3 µM

Q: What about the GI50 (PC-3 prostate) of the same molecule?
A: 9.42 µM

Q: What about the TGI (PC-3 prostate) of the same molecule?
A: 24.7 µM

Q: What about the GI50 (LOX IMVI melanoma) of the same molecule?
A: 13.7 µM

Q: And the TGI (LOX IMVI melanoma)?
A: 26.6 µM

Q: And the GI50 (T-47D breast)?
A: 3.03 µM

Q: And the TGI (T-47D breast)?
A: > 100 µM

Q: And the GI50 (TK-10 renal)?
A: 10.7 µM

Q: What about the TGI (TK-10 renal) of the same molecule?
A: 36.8 µM

Q: What about the GI50 (SK-MEL-28 melanoma) of the same molecule?
A: 15.4 µM

Q: And the TGI (SK-MEL-28 melanoma)?
A: 40.5 µM

Q: What about the GI50 (OVCAR-8 ovarian) of the same molecule?
A: 12.9 µM

Q: What about the TGI (OVCAR-8 ovarian) of the same molecule?
A: 38.4 µM

Q: What about the GI50 (HT29 colon) of the same molecule?
A: 4.71 µM

Q: And the TGI (HT29 colon)?
A: > 100 µM

Q: And the GI50 (MCF7 breast)?
A: 22.7 µM

Q: What about the TGI (MCF7 breast) of the same molecule?
A: > 92.2 µM

Q: What about the GI50 (MOLT-4 leukemia) of the same molecule?
A: 2.21 µM

Q: What about the GI50 (IGROV1 ovarian) of the same molecule?
A: 16.6 µM

Q: What about the TGI (IGROV1 ovarian) of the same molecule?
A: 43.1 µM

Q: What about the GI50 (NCI/ADR-RES ovarian) of the same molecule?
A: 15.7 µM

Q: What about the TGI (NCI/ADR-RES ovarian) of the same molecule?
A: 39.2 µM

Q: And the GI50 (U251 CNS)?
A: 6.87 µM

Q: And the TGI (U251 CNS)?
A: 20.2 µM

Q: What about the GI50 (HOP-92 NSCLC) of the same molecule?
A: 0.658 µM

Q: And the TGI (HOP-92 NSCLC)?
A: 11.9 µM

Q: What about the GI50 (EKVX NSCLC) of the same molecule?
A: 16 µM

Q: What about the TGI (EKVX NSCLC) of the same molecule?
A: 31.8 µM

Q: What about the GI50 (NCI-H460 lung) of the same molecule?
A: 20.4 µM

Q: And the TGI (NCI-H460 lung)?
A: > 95.8 µM

Q: What about the GI50 (HL-60(TB) leukemia) of the same molecule?
A: 6.8 µM

Q: What about the TGI (HL-60(TB) leukemia) of the same molecule?
A: 99.4 µM

Q: What about the GI50 (COLO 205 colon) of the same molecule?
A: 8.56 µM

Q: And the TGI (COLO 205 colon)?
A: 30.6 µM

Q: And the GI50 (OVCAR-4 ovarian)?
A: 12.5 µM

Q: And the TGI (OVCAR-4 ovarian)?
A: 30.9 µM

Q: And the GI50 (OVCAR-5 ovarian)?
A: 13.9 µM

Q: What about the TGI (OVCAR-5 ovarian) of the same molecule?
A: 28 µM

Q: What about the GI50 (HOP-62 NSCLC) of the same molecule?
A: 19.9 µM

Q: And the TGI (HOP-62 NSCLC)?
A: 38 µM

Q: And the GI50 (SF-539 CNS)?
A: 16.6 µM

Q: And the TGI (SF-539 CNS)?
A: 31.9 µM

Q: And the GI50 (NCI-H23 lung)?
A: 13.4 µM

Q: And the TGI (NCI-H23 lung)?
A: 28.6 µM

Q: And the GI50 (NCI-H522 lung)?
A: 18.9 µM

Q: And the TGI (NCI-H522 lung)?
A: > 56.2 µM

Q: What about the GI50 (RXF 393 renal) of the same molecule?
A: 3 µM

Q: And the TGI (RXF 393 renal)?
A: 11.6 µM

Q: What about the GI50 (SF-268 CNS) of the same molecule?
A: 13.8 µM

Q: And the TGI (SF-268 CNS)?
A: 31.3 µM

Q: And the GI50 (A498 renal)?
A: 15 µM

Q: And the TGI (A498 renal)?
A: 29.7 µM

Q: What about the GI50 (UACC-62 melanoma) of the same molecule?
A: 13.3 µM

Q: What about the TGI (UACC-62 melanoma) of the same molecule?
A: 26.4 µM

Q: What about the GI50 (OVCAR-3 ovarian) of the same molecule?
A: 12.5 µM

Q: And the TGI (OVCAR-3 ovarian)?
A: 29.2 µM

Q: What about the GI50 (MALME-3M melanoma) of the same molecule?
A: 20 µM

Q: And the TGI (MALME-3M melanoma)?
A: 36 µM

Q: And the GI50 (SNB-19 CNS)?
A: 14.1 µM

Q: What about the TGI (SNB-19 CNS) of the same molecule?
A: 48.1 µM

Q: What about the GI50 (K-562 leukemia) of the same molecule?
A: 3.85 µM

Q: And the GI50 (SF-295 CNS)?
A: 18.5 µM

Q: What about the TGI (SF-295 CNS) of the same molecule?
A: 38 µM

Q: And the GI50 (SW-620 colon)?
A: 3.38 µM

Q: What about the TGI (SW-620 colon) of the same molecule?
A: 11.6 µM

Q: What about the GI50 (SNB-75 CNS) of the same molecule?
A: 25.4 µM

Q: What about the TGI (SNB-75 CNS) of the same molecule?
A: 74.1 µM

Q: What about the GI50 (SK-MEL-2 melanoma) of the same molecule?
A: 24 µM

Q: And the TGI (SK-MEL-2 melanoma)?
A: > 73 µM

Q: And the GI50 (HCC-2998 colon)?
A: 5.79 µM

Q: What about the TGI (HCC-2998 colon) of the same molecule?
A: 13.4 µM

Q: What about the GI50 (BT-549 breast) of the same molecule?
A: 17.1 µM

Q: What about the TGI (BT-549 breast) of the same molecule?
A: 41.7 µM

Q: And the GI50 (DU-145 prostate)?
A: 13.8 µM

Q: What about the TGI (DU-145 prostate) of the same molecule?
A: 26.8 µM

Q: And the GI50 (MDA-MB-435)?
A: 16.7 µM

Q: And the TGI (MDA-MB-435)?
A: 31.2 µM

Q: What about the GI50 (ACHN renal) of the same molecule?
A: 1.85 µM

Q: What about the TGI (ACHN renal) of the same molecule?
A: 3.87 µM

Q: And the GI50 (HS 578T breast)?
A: 4.54 µM

Q: And the TGI (HS 578T breast)?
A: 27.3 µM

Q: What about the GI50 (UACC-257 melanoma) of the same molecule?
A: 14.1 µM

Q: What about the TGI (UACC-257 melanoma) of the same molecule?
A: 27.4 µM
